Measured values published in patent US8796224B2, “Methods for preparing purified lipopeptides” (priority 2000, dated 2014).
Converted amounts (≈) assume the structure as drawn.

Experiments:
[1] = physchem
[2] = test system: susceptible strains; assay: Minimum inhibitory concentration (MIC) in in vitro experiments; format: cell-based, gram-positive organisms; details: against susceptible strains, compared with vancomycin, 'typically'
[3] = Hygroscopicity of the amorphous preparation; format: physicochemical; details: amorphous daptomycin preparation

Row | Compound | solubility ([1]; solubility in normal saline) [mg/mL] | solubility ([1]; solubility in ethanol) [mg/mL] | solubility ([1]; solubility in water) [mg/mL] | MIC value, fold lower than that of vancomycin [2] [fold] | hygroscopicity [3]
1 | CCCCCCCCCCC(=O)NC(Cc1c[nH]c2ccccc12)C(=O)NC(CC(N)=O)C(=O)NC(CC(=O)O)C(=O)NC1C(=O)NCC(=O)NC(CCCN)C(=O)NC(CC(=O)O)C(=O)NC(C)C(=O)NC(CC(=O)O)C(=O)NCC(=O)NC(CO)C(=O)NC(C(C)CC(=O)O)C(=O)NC(CC(=O)c2ccccc2N)C(=O)OC1C (centres unmarked) [CB-131547] | ~80 (≈ 48.9 mM) | – | – | – | –
2 | CCCCCCCCCC(=O)N[C@@H](Cc1c[nH]c2ccccc12)C(=O)N[C@H](CC(N)=O)C(=O)N[C@@H](CC(=O)O)C(=O)N[C@@H]1C(=O)NCC(=O)N[C@@H](CCCN)C(=O)N[C@@H](CC(=O)O)C(=O)N[C@H](C)C(=O)N[C@@H](CC(=O)O)C(=O)NCC(=O)N[C@H](CO)C(=O)N[C@@H]([C@H](C)CC(=O)O)C(=O)N[C@@H](CC(=O)c2ccccc2N)C(=O)O[C@@H]1C [daptomycin] | – | 2.8 (≈ 1.73 mM) | > 1000 | 4 | hygroscopic
